These are literature values, as cited in patent US8067011B2, “Compositions and methods for treating B-cell malignancies” (Chimeros, Inc., priority 2006, dated 2011).

For series [1], the system named is diffuse large B-cell, CD20-positive, non-Hodgkin's lymphoma. The following applies: added to CHOP or other anthracycline-based chemotherapy, first-line DLBCL.
Series [2] has as its system relapsed or refractory, low-grade or follicular, CD20-positive, B-cell non-Hodgkin's lymphoma. The following applies: low-grade or follicular NHL.

Regarding “Rituxan: naked antibody that specifically binds to CD20, used for B cell-derived lymphomas and leukemias”, the “extension of progression free survival over chemotherapy alone” value in series [1] is recorded as “about 1.5 years”. Moreover, in series [2], the “median duration of response, defined as progression free survival” value is given as “about 1 year” and the response rate entry is listed as “about 50%”.
